# Measurements as given in PubChem BioAssay AID1996.
# Settings: buffer; pH 7.4; 200.0 µM
row,SMILES,solubility kinetic [µg/mL]
1,O=c1c(NCCc2ccccc2)c(-c2ccccc2)c1=O,< 0.6
2,O=[N+]([O-])c1cccc2c(N3CCCC3)ccnc12,> 36.5
3,Cc1ccc(C(=O)OCC(=O)NCC2CCCO2)c(C)c1 (stereo not given),> 43.7
4,O=C1Cc2ccccc2C(=O)N1c1ccccc1,35.1
5,COc1ccc(CCC(C)NCc2cccc(Br)c2)cc1 (stereo not given),34.1
6,COc1ccc(NC(=O)Cc2cccc3ccccc23)cc1,2.9
7,Cc1cc(C)nc(Nc2cccc(C(F)(F)F)c2)n1.Cl,1.8
8,CC(C)(C)C(=O)/C(C#N)=C/c1cccs1,10.9
9,O=C(N1CCCC1)C12CC3CCC(CC(C3)C1)C2,28.4
10,N#Cc1ccc(C(=O)Nc2ccc3ccccc3c2)cc1,0.4
11,Cc1csc(SCC(=O)Nc2cc(C(N)=O)cc(C(N)=O)c2)n1,51.6
12,COC(=O)c1ccccc1C(=O)N1CC(O)CO1 (stereo not given),> 37.7
13,CC(C)(C)NC(=S)NCC1CC1,> 27.9
14,Cc1ccc(NC(=O)C2CCC(C(C)(C)C)CC2)cc1S(=O)(=O)N1CCOCC1 (stereo not given),3.5
15,Cc1ccccc1-n1nc2c(c1NC(=O)CC(C)C)CS(=O)C2 (stereo not given),> 49.7
16,COc1cccc(N2CCN(C(=S)Nc3ccc(F)cc3)CC2)c1,0.6
17,COCCn1c(SCC(=O)N2CCOCC2)nnc1-c1ccco1,> 52.9
18,Cc1cccc(C)c1OCC(=O)Nc1ccc2c(c1)OCCO2,23.5
19,COC(=O)c1ccc(N2C(=O)C3C4C=CC(CC4)C3C2=O)cc1 (stereo not given),20.1
20,Cc1cccc(C)c1N1CCN(C(=O)Cn2cncn2)CC1,> 44.9
21,Cc1ccc(C(=O)CCC(=O)Nc2cccc(C)c2)cc1,< 0.6
22,O=C(CCc1nc2ccccc2s1)Nc1cccnc1,32.6
23,Clc1cccc2c1CCN(Cc1nc(-c3cnccn3)no1)C2,33.9
24,CCC(C)NC(=O)c1ccccc1SC (stereo not given),> 33.5

row,SMILES,solubility kinetic [µg/mL]
1,CSc1nc(NCCCO)c2c3c(sc2n1)CN(C)CC3,41.7
2,O=C(CN1C(=O)NC(CCc2ccccc2)C1=O)Nc1ccc(F)c(F)c1F (stereo not given),4.5
3,CC(=O)Nc1ccc(NS(=O)(=O)c2cc([N+](=O)[O-])ccc2C)cc1,2.6
4,Nc1ccc(Sc2nc3ccccc3[nH]2)cc1,> 36.2
5,CC1(C)CCc2cc(-c3ccnc(=S)[nH]3)ccc2O1,8.5
6,CC(C)(C)NC(=O)/C(=C/c1cccnc1)NC(=O)c1ccco1,> 47
7,CCc1ccccc1NC(=S)N1CCN(c2ccccc2F)CC1,4.4
8,Cc1ccc(Oc2ccc(NS(=O)(=O)c3cccc(C(=O)O)c3)cc2)cc1,57.2
9,N#CCSc1nc(-c2ccccc2)nc2ccccc12,< 0.2
10,CCOC(=O)c1c(C)[nH]c(C)c1C(=O)COC(=O)c1cccnc1Cl,> 54.7
11,c1ccc(CNc2c3ccccc3nc3ccccc23)cc1,40.5
12,COC(=O)Cc1c(O)ccn(Cc2ccc(Cl)c(Cl)c2)c1=O,> 51.3
13,O=C(NCCCNC(=O)c1ccco1)c1ccc(F)cc1,42.7
14,CSc1ccc(Cl)c(C(=O)Nc2cc(S(=O)(=O)N3CCOCC3)ccc2N2CCOCC2)c1,3.4
15,O=c1[nH]c(=O)n(Cc2ccco2)c(O)c1C=NCCN1CCNCC1,> 52.1
16,O=C(NC1CCCC1)c1cc(-c2ccccc2Cl)on1,2.2
17,CN1CN(c2cccc([N+](=O)[O-])c2)CN=C1N[N+](=O)[O-],> 42
18,COc1ccccc1CCC(=O)N(C)CC(=O)Nc1ccc(F)cc1,20.4
19,CSc1nc2ccccc2c(=O)n1Cc1ccc(F)cc1,< 0.3
20,Cc1ccc(NC(=O)COC(=O)c2nn(C)cc2Cl)cc1,> 46.2
21,COc1cc(/C=C/C(=O)NCC2CCCCC2)cc(OC)c1OC,< 0.7
22,COc1ccc(CC(=O)NCC2CCCCC2)cc1OC,> 43.7
23,CC(=O)c1ccc(OCC(=O)OC(C)C(=O)NC2CCCCC2)cc1 (stereo not given),> 52.1
24,O=C(Nc1cccc(Cl)c1)N1CCc2ccccc2C1,1.9

row,SMILES,solubility kinetic [µg/mL]
1,Cc1nc2ccccn2c1-c1csc(Nc2ccc(C(=O)O)cc2)n1,2.5
2,CNc1nc(-c2ccccc2)cc(C)c1S(C)(=O)=O,22.8
3,CN(CC(=O)NCCc1ccc(S(N)(=O)=O)cc1)CC(=O)Nc1ccc(F)c(F)c1F,> 68.8
4,O=C(Cn1cnc2ccccc21)c1ccc(Br)cc1,40
5,CCOC(=O)CSc1nc(-c2ccccc2)ns1,6.3
6,CC(=O)CC1(O)C(=O)Nc2ccccc21 (stereo not given),27.6
7,O=S(=O)(Nc1cccc2ccccc12)c1ccccc1F,1.5
8,COc1cc(C)ccc1OCC(=O)OCC(=O)NCC1CCCCC1,> 52.4
9,CNC(=O)c1ccc(NC(=O)CC23CC4CC(CC(C4)C2)C3)cc1,13.8
10,Clc1cccc(CN2CCc3c([nH]c4ccccc34)C2)c1,8.2
11,Cc1ccc(/C(=C\CN2CCCC2)c2ccccn2)cc1.Cl,> 47.2
12,O=C(Nc1ccncc1)c1ccc2ncsc2c1,35.6
13,CCOCCn1c2ccccc2c2nc3ccccc3nc21,4.1
14,O=C(O)c1ccc(S(=O)(=O)NC2CC2)cc1,> 36.2
15,Clc1ccc(Cl)c(OCCN2CCCC2)c1,25.4
16,O=C(c1cccnc1)N1CCN(S(=O)(=O)c2cccs2)CC1,> 50.6
17,Br.O=C(CN1CCCCC1)c1ccccc1F,> 45.3
18,O=C1CSC(c2ccccn2)N1c1ccc(C(F)(F)F)cc1 (stereo not given),> 48.6
19,Cl.Oc1cccc(Nc2c3ccccc3nc3ccccc23)c1,0.7
20,CCc1nc2ccccc2n1CC(O)COCC1CC=CCC1 (stereo not given),> 47.2
21,CN1CCN(c2nc(-c3ccccc3Cl)nc3ccccc23)CC1,> 50.8
22,COc1ccccc1NC(=O)c1ccc(NC(=O)COC(=O)c2cccnc2Cl)cc1,7.4
23,Nc1c(C(=O)O)cnn1-c1ccc([N+](=O)[O-])cc1,> 37.2
24,CC1CCN(CCNC(=S)Nc2ccc(Cl)cc2)CC1,> 46.8

row,SMILES,solubility kinetic [µg/mL]
1,O=C1NC(c2ccc(Br)cc2)Oc2ccccc21 (stereo not given),2.1
2,CCN(CC)S(=O)(=O)c1ccc(O)c(C(=O)OCC(=O)NC23CC4CC(CC(C4)C2)C3)c1,25.5
3,Cc1cccnc1NC(=O)c1ccc(COc2ccccc2)o1,> 46.3
4,COc1nc(SCC(=O)Nc2ccccc2Cl)nc(N(C)C)n1,20.4
5,O=C(CN1C(=O)NC2(CCCCC2)C1=O)Nc1ccc2c(c1)CCC2,5.1
6,CC(=O)Nc1c(Cl)cnn(-c2ccccc2)c1=O,> 39.6
7,O=C(O)c1cccc(-n2c(O)c(C=C3N=c4ccccc4=N3)sc2=S)c1,> 57.2
8,O=C(Nc1c(F)cccc1F)C(c1ccccc1)c1ccccc1,< 0.7
9,COc1ccccc1CNC(=O)c1sccc1-c1ccccc1,14.4
10,COc1ccc(NC(=S)N2CCc3ccccc3C2)cc1OC,1.9
11,Cc1nn(CC(=O)N(C)C2(C#N)CCCCC2)c(C)c1[N+](=O)[O-],> 47.9
12,c1ccc(CCNCCOc2ccccc2)cc1,22.8
13,Cc1[nH]c2ccc(C(=O)Nc3ccncc3)cc2c1C,34.7
14,COc1ccc(NC(=O)CCCc2nc3ccccc3c(=O)[nH]2)cc1Cl,14.5
15,C=CCn1c(O)c(C=NCCN2CCOCC2)c(=O)[nH]c1=S,> 48.7
16,Cc1nc2cc(NC(=O)NCCCO)ccc2o1,> 37.4
17,O=[N+]([O-])c1ccc(N=Cc2c(O)ccc3ccccc23)cc1,30.5
18,CC1CC1C(=O)OCC(=O)Nc1cccc(F)c1 (stereo not given),> 37.7
19,O=C(COC(=O)c1cc(Cl)nc(Cl)c1)Nc1ccc(Cl)c(S(=O)(=O)N2CCOCC2)c1,31.7
20,CC(C)c1ccc(N2C(=O)C3C4C=CC(CC4)C3C2=O)cc1 (stereo not given),2.7
21,COCCCn1c(=S)[nH]c2sc3c(c2c1=O)CCCC3,> 46.6
22,CC(C(=O)Nc1ccc(F)c(F)c1F)N(C)Cc1cccs1 (stereo not given),13.6
23,CCn1cnc2cc(NCc3cccs3)ccc21,> 38.6
24,Cc1cc(C)c(NC(=S)N(C)C)c(C)c1,> 33.4

row,SMILES,solubility kinetic [µg/mL]
1,Cc1ccc(NC(=O)Cn2c(=O)oc3ccccc32)cc1,7.2
2,O=C(CSc1nc2c(cnn2-c2ccccc2)c(=O)[nH]1)NCC1CCCO1 (stereo not given),> 57.8
3,CC(=O)CSc1ccc(-c2nc3cc(C)c(C)cc3[nH]2)cn1,3.9
4,Cc1onc(-c2ccccc2)c1C(=O)N1CCCN2C(=O)c3ccccc3C21 (stereo not given),48.7
5,CSc1ncc(CN2CCN(C3CCCC3)C(CCO)C2)cn1 (stereo not given),42.6
6,O=C(NC1CCN(C(=S)NCCc2ccccc2)CC1)C1CC1,10.7
7,O=C(COC(=O)CC1CCCC1)Nc1ccc(Br)cc1F,19.2
8,CCCCSCCCNC(=O)Nc1ccc(C)c(C)c1,1.1
9,Cc1cccc(C)c1NC(=O)N1CC=CCC1,> 34.5
10,S=C1NCN(Cc2ccco2)CN1,> 29.6
11,CS(=O)(=O)Cc1ccc(C(=O)NC2CCCc3ccccc32)cc1 (stereo not given),9.6
12,CC1CCCN(CCC(=O)Nc2ccc(F)c(F)c2)C1 (stereo not given),> 42.3
13,O=Cc1cn(CC(=O)N2CCCCCC2)c2ccccc12,> 42.7
14,CCCCOC(=O)Nc1ccc(S(=O)(=O)Nc2nccs2)cc1,38.1
15,O=C(O)/C=C/C(=O)NCCC(c1ccccc1)c1ccccc1,> 46.4
16,CCN(CC(=O)NC1CCCC1)S(=O)(=O)c1ccc(F)cc1,> 49.3
17,O=C(NCCS(=O)(=O)NC1CCCC1)c1ccccc1,> 44.5
18,CC1CN(CC(=O)NC(C)c2ccccc2)CC(C)O1 (stereo not given),> 41.5
19,Cc1cc(NC(=O)CSCC(=O)N2CCN(c3ccccc3)CC2)no1,> 56.2
20,O=C(Nc1cccc([N+](=O)[O-])c1)N1CCCCCC1,37.5
21,CC(=O)c1cccc(NS(=O)(=O)N2CCOCC2)c1,> 42.6
22,CC(=O)c1ccc(NC(=O)COC(=O)Cc2ccsc2)cc1,> 47.6
23,CC1(C)Cc2nc(-c3ccccc3)nc(SCC(=O)N3CCCC3)c2CO1,22.3
24,CC1CCCCC1NC(=O)COC(=O)c1ccc([N+](=O)[O-])o1 (stereo not given),> 46.5
